≈ marks a conversion by molar mass, not a printed value. Some results are limits rather than exact numbers.

Test [1] relates to ADC-172 in DH10B Escherichia coli. Nature of the test: MIC by broth microdilution, ADC-172 in DH10B E. coli. As to conditions: for MIC: Escherichia coli, DH10B E. coli expressing ADC-172 (Adup) from pBCSK−, FDC in iron-depleted cation-adjusted MH broth, mode of triplicate, read-out: MIC. The class given is cell-based. As to the method:
(§1) Susceptibility testing to standard antibiotics was performed by broth microdilution according to 2024 Clinical and Laboratory Standards Institute (CLSI) guidelines ([38]). MICs for FDC were done in iron-depleted cation-adjusted Mueller-Hinton (MH) broth according to CLSI methods. All MICs were interpreted according to the 2024 CLSI guidelines ([38]). MICs are done in triplicate, and the mode MIC value is reported.
(§2) blaADC-7 pBCSK− was cloned and expressed in E. coli DH10B cells as previously described for MIC determinations ([3]). The pBCSK-non-inducible phagemid vector has a chloramphenicol resistance gene used to aid selection. All other blaADC variants were synthesized by GenScript according to the blaADC-7 pBCSK− strategy, cloning into the XbaI/BamHI sites of the pBCSK− vector ([5]).

Test [2] has as its system ADC-217 in DH10B Escherichia coli. Kind of test: MIC by broth microdilution, ADC-217 in DH10B E. coli. As to conditions: DH10B E. coli expressing ADC-217 (non-Adup) from pBCSK−, FDC in iron-depleted cation-adjusted MH broth, mode of triplicate. In kind it is cell-based. As to the method:
as §1, §2

The test system of test [3] is ADC-219 in DH10B Escherichia coli. Nature of the test: MIC by broth microdilution, ADC-219 in DH10B E. coli. In kind it is cell-based. As to conditions: DH10B E. coli expressing ADC-219 (Adup) from pBCSK−, FDC in iron-depleted cation-adjusted MH broth, mode of triplicate. As to the method:
as §1, §2
A general note: In broth dilution the organism is exposed to a series of concentrations in liquid medium.

The test system of test [4] is ADC-143 in DH10B Escherichia coli. Kind of test: MIC by broth microdilution, ADC-143 in DH10B E. coli. The class given is cell-based. As to conditions: DH10B E. coli expressing ADC-143 (non-Adup) from pBCSK−, FDC in iron-depleted cation-adjusted MH broth, mode of triplicate. As to the method: as §1, §2
Test [5] has as its system ADC-218 in DH10B Escherichia coli. Nature of the test: MIC by broth microdilution, ADC-218 in DH10B E. coli. The class given is cell-based. As to conditions: DH10B E. coli expressing ADC-218 (Adup) from pBCSK−, FDC in iron-depleted cation-adjusted MH broth, mode of triplicate. As to the method: as §1, §2
The test system of test [6] is ADC-33 in DH10B Escherichia coli. Nature of the test: MIC by broth microdilution, ADC-33 in DH10B E. coli. The class given is cell-based. As to conditions: DH10B E. coli expressing ADC-33 (Adup) from pBCSK−, FDC in iron-depleted cation-adjusted MH broth, mode of triplicate. As to the method:
as §1, §2

Test [7] deals with ADC-73 in DH10B Escherichia coli. Kind of test: MIC by broth microdilution, ADC-73 in DH10B E. coli. The class given is cell-based. As to conditions: DH10B E. coli expressing ADC-73 (non-Adup) from pBCSK−, FDC in iron-depleted cation-adjusted MH broth, mode of triplicate. As to the method: as §1, §2
For test [8], the system named is DH10B Escherichia coli pBCSK− no insert. Kind of test: MIC by broth microdilution, DH10B E. coli with pBCSK− no insert. The class given is cell-based. As to conditions: DH10B E. coli with pBCSK− no insert (control strain), FDC in iron-depleted cation-adjusted MH broth. As to the method:
as §1, §2

The subject of a further test is DH10B alone. Nature of the test: MIC by broth microdilution, DH10B alone. The class given is cell-based. As to conditions: Escherichia coli; DH10B alone (control strain); FDC in iron-depleted cation-adjusted MH broth. As to the method: as §1, §2
Test [9] deals with ADC-7 in DH10B Escherichia coli. Kind of test: MIC by broth microdilution, ADC-7 in DH10B E. coli. In kind it is cell-based. Particulars: DH10B E. coli expressing ADC-7 (non-Adup) from pBCSK−, FDC in iron-depleted cation-adjusted MH broth, mode of triplicate. As to the method:
as §1, §2

In test [10] the test system is ADC-30 in DH10B Escherichia coli. Nature of the test: MIC by broth microdilution, ADC-30 in DH10B E. coli. Particulars: DH10B E. coli expressing ADC-30 (non-Adup) from pBCSK−, FDC in iron-depleted cation-adjusted MH broth, mode of triplicate. In kind it is cell-based. As to the method:
as §1, §2

A further test addresses ADC-217 (Acinetobacter baumannii, UniProt Q6DRA1, V286E, form not given). Nature of the test: Steady-state hydrolysis kinetics, ADC-217. In kind it is biochemical. As to conditions: hydrolysis by ADC-217. As to the method:
Steady-state kinetic parameters were determined by combining pure enzyme with antibiotic substrates in 50 mM NaH2PO4, pH 7.4, at room temperature. Changes in absorbance were measured on the Cary 60 UV−Vis spectrophotometer (Agilent Technologies) and converted to velocity using the change in extinction coefficient specific to nitrocefin (NCF) (ε482 = 17,400 M^−1·cm^−1), CAZ (ε260 8,660 M^−1·cm^−1), and cefiderocol (ε259 9,430 M^−1·cm^−1). The concentration of enzyme ranged from 0.1 to 1.0 µM, and all kinetic experiments were performed at least in triplicate. Initial velocities were fitted to the Michaelis-Menten equation, yielding kcat and KM values. The standard error for kcat/KM values was generated by factoring in the larger of the proportional standard errors for the individual kcat value and the KM value. For ADC/substrate combinations in which the KM was too large to accurately determine both kcat and KM values, the initial velocities at kcat/KM values were calculated from linear fits of vo in low [S] ranges (<0.08 * KM).

In test [11] the test system is ADC variants in DH10B Escherichia coli. Nature of the test: MIC, statements across ADC variants in E. coli. In kind it is cell-based. As to the method: as §1, §2

Take `C[C@H]1[C@H](NC(=O)/C(=N\OC(C)(C)C(=O)O)c2csc(N)n2)C(=O)N1S(=O)(=O)O` [ATM, aztreonam]: the minimum inhibitory concentration (MIC) (commonly the least concentration at which growth counts as inhibited) in [1] was 32 µg/mL (≈ 73.5 µM); in test [2] it was 8 µg/mL (≈ 18.4 µM); in [3], 32 µg/mL (≈ 73.5 µM); in test [4], 16 µg/mL (≈ 36.7 µM); in test [5] it was 256 µg/mL (≈ 588 µM); in [6], 64 µg/mL (≈ 147 µM). Besides, the minimum inhibitory concentration (MIC) turned out to be 2 µg/mL (≈ 4.59 µM) in test [7]; 0.12 µg/mL (≈ 0.276 µM) in [8]; 0.25 µg/mL (≈ 0.574 µM) with DH10B alone; 8 µg/mL (≈ 18.4 µM) in test [9]; 8 µg/mL (≈ 18.4 µM) in test [10].

In the case of `CC(=O)OCC1=C(C(=O)O)N2C(=O)[C@@H](NC(=O)Cc3cccs3)[C@H]2SC1` [CEF, cephalothin], the MIC in test [1] amounted to 2050 µg/mL (≈ 5170 µM); in test [2] it was 2050 µg/mL (≈ 5170 µM); in test [3], 1020 µg/mL (≈ 2580 µM); in [4], 2050 µg/mL (≈ 5170 µM); in test [5], 2050 µg/mL (≈ 5170 µM); in test [6] it was 2050 µg/mL (≈ 5170 µM). For the same compound, the MIC amounted to 2050 µg/mL (≈ 5170 µM) in test [7]; 8 µg/mL (≈ 20.2 µM) in [8]; 16 µg/mL (≈ 40.4 µM) in the test with DH10B alone; 4100 µg/mL (≈ 10300 µM) in test [9]; 4100 µg/mL (≈ 10300 µM) in [10].

Regarding `CO/N=C(\C(=O)N[C@@H]1C(=O)N2C(C(=O)O)=C(COC(C)=O)CS[C@H]12)c1csc(N)n1` [CTX, cefotaxime], the minimum inhibitory concentration (MIC) in test [1] came out at 32 µg/mL (≈ 70.3 µM); in test [2], 64 µg/mL (≈ 141 µM); in test [3], 32 µg/mL (≈ 70.3 µM); in test [4] it was 32 µg/mL (≈ 70.3 µM); in test [5] it was 256 µg/mL (≈ 562 µM); in [6], 64 µg/mL (≈ 141 µM). The minimum inhibitory concentration (MIC) in test [7] is 32 µg/mL (≈ 70.3 µM); in [8], 0.06 µg/mL (≈ 0.132 µM); with DH10B alone it was 0.12 µg/mL (≈ 0.263 µM); in [9] it was 64 µg/mL (≈ 141 µM); in [10] it was 32 µg/mL (≈ 70.3 µM).

In the case of `CO/N=C(\C(=O)N[C@@H]1C(=O)N2C(C(=O)[O-])=C(C[N+]3(C)CCCC3)CS[C@H]12)c1csc(N)n1` [FEP, cefepime], the “fold increase in MIC from ADC-30 to ADC-172” value in test [1] (DH10B E. coli, ADC-172 versus ADC-30) was ≤ 16 fold. Besides, the MIC in test [1] worked out at 8 µg/mL (≈ 16.6 µM); in test [2] it was 16 µg/mL (≈ 33.3 µM); in [3] it was 0.125 µg/mL (≈ 0.26 µM); in test [4], 0.25 µg/mL (≈ 0.52 µM); in test [5], 4 µg/mL (≈ 8.32 µM); in test [6] it was 1 µg/mL (≈ 2.08 µM). The MIC in test [7] was 0.25 µg/mL (≈ 0.52 µM); in test [8], 0.03 µg/mL (≈ 0.0624 µM); in the test with DH10B alone it was 0.06 µg/mL (≈ 0.125 µM); in test [9], 0.5 µg/mL (≈ 1.04 µM); in [10], 0.5 µg/mL (≈ 1.04 µM). In addition, on ADC-217, the Km (in general, the substrate concentration at which the rate is half of its maximum) was 155 µM. The kcat (in general, the number of substrate molecules converted per active site and unit of time at saturation) at ADC-217 was 30.2 s⁻¹.

`C[C@@H](O)[C@H]1C(=O)N2C(C(=O)O)=C(SCCN=CN)C[C@H]12` [IPM, imipenem] displayed a minimum inhibitory concentration (MIC) in test [8] of 0.25 µg/mL (≈ 0.835 µM).

Regarding `Cn1c(N)c(NC(=O)NCCN)c[n+]1CC1=C(C(=O)O)N2C(=O)[C@@H](NC(=O)/C(=N\OC(C)(C)C(=O)[O-])c3nsc(N)n3)[C@H]2SC1` [TOL, ceftolozane], the minimum inhibitory concentration (MIC) in [1] was found to be 512 µg/mL (≈ 768 µM); in test [2], 16 µg/mL (≈ 24 µM); in test [3] it was 128 µg/mL (≈ 192 µM); in [4] it was 16 µg/mL (≈ 24 µM); in test [5] it was 512 µg/mL (≈ 768 µM); in test [6], 512 µg/mL (≈ 768 µM). In addition, the minimal inhibitory concentration (MIC) in [11] was ≥ 512 µg/mL; in [7], 2 µg/mL (≈ 3 µM); in test [8], 0.5 µg/mL (≈ 0.75 µM); against DH10B alone, 0.5 µg/mL (≈ 0.75 µM); in test [9], 8 µg/mL (≈ 12 µM); in test [10], 4 µg/mL (≈ 6 µM).
